Counter-ions that a name gives are not always drawn. Like-named read-outs stand apart in the source and are kept apart here. Where a SMILES comes first, the peptide text is derived from it. The star is where a group is joined. X1 = CCC1=C(C)c2cc3[nH]c(cc4nc(c(C)c5cc(C)c(cc1n2)[nH]5)[C@@H](CCC(=O)*)[C@@H]4C)c(C)c3CC
How the values were obtained:
[1] = test system: Human ovarian cancer cell line SKOV3; assay: Phototoxicity in SKOV3 cells after 660 nm laser or LED activation (AlamarBlue viability); format: cell-based
Description: Samples were stored at 4° C. protected from light. […] All data are shown as mean±SD (where appropriate). […] Laser and LED exposure induce an equivalent response in relation to phototoxicity. Following activation, cells were cultured for a further 24 hours. Media was then replaced with fresh media containing AlamarBlue, and % viable cells remaining assessed as above. Controls included cells treated with reduced chlorin analogues but not activated by laser light; cells without reduced chlorin analogue treatment but with laser light; and untreated controls. All measurements were made in quadruplicate.

[2] = test system: Human ovarian cancer cell line SKOV3; assay: Inherent cytotoxicity (dark toxicity) in SKOV3 cells (AlamarBlue viability); format: cell-based
Description: Photosensitizers (e.g. chlorin analogue, chlorin e4 disodium (provided by Advanced Molecular Technologies, Scoresby) or Talaporfin sodium (purchased from Focus Bioscience cat #HY-16477-5MG)) were resuspended in 100% dimethylsulfoxide (DMSO) at a concentration of 5.5 mM. Samples were stored at 4° C. protected from light.
All data are shown as mean±SD (where appropriate).
Untreated cells were used as a control. […] All measurements were made in quadruplicate.

[3] = SKOV3 cells, 24 hours incubation, no light activation
[4] = Homo sapiens, SK-OV-3, light or radiation study, SKOV3 cells, 24 hours uptake, 660 nm laser, 50 mW/cm^2 for 5 mins (15 J/cm^2), viability 24 hours after activation, read-out: Phototoxicity μM (IC90)
[5] = SKOV3 cells, vs phyllochlorin free acid / phyllochlorin sodium salt
[6] = Homo sapiens, SK-OV-3, light or radiation study, SKOV3 cancer cells, laser or LED, read-out: phototoxicity IC90
[7] = Homo sapiens, SK-OV-3, light or radiation study, SKOV3 cells, 24 hours uptake, 660 nm LED panel, 50 mW/cm^2 for 5 mins (15 J/cm^2), values marked *, read-out: Phototoxicity μM (IC90), measured by LED

| Compound | IC90 [1, 4] [µM] | Dark toxicity μM (IC10) ([2]; human, 24 h) [µM] | also measured |
| --- | --- | --- | --- |
| C=Cc1c(C)c2cc3nc(c(C)c4[nH]c(cc5nc(cc1[nH]2)C(C)=C5CC)c(C)c4C(=O)O)[C@@H](CCC(=O)O)[C@@H]3C [Chlorin e4 disodium, chlorin e4 disodium, reference compound] |  |  | IC90 ([1]; SKOV3 cells, 24 hours uptake, 660 nm laser, 50 mW/cm^2 for 5 mins (15 J/cm^2), viability 24 hours after activation, read-out: Phototoxicity μM (IC90)): 21.3 µM; Dark toxicity μM (IC10) [2, 3]: 40.23 µM |
| CCC1=C(C)c2cc3[nH]c(cc4nc(c(C)c5cc(C)c(cc1n2)[nH]5)[C@@H](CCC(=O)[O-])[C@@H]4C)c(C)c3CC.[Na+] [Compound 2, Reduced Phyllochlorin Sodium Salt] | 0.071 |  | increase in phototoxicity of meso-compound compared to non-meso analogue [1, 5]: 4.9 fold; Dark toxicity μM (IC10) [2, 3]: 47.840 µM; Dark toxicity compared to non-meso analogue [2, 5]: largely unaffected |
| CCC1=C(C)c2cc3[nH]c(cc4nc(c(C)c5cc(C)c(cc1n2)[nH]5)[C@@H](CCC(=O)N[C@H]1C(O)O[C@H](CO)[C@@H](O)[C@@H]1O)[C@@H]4C)c(C)c3CC (stereo partly shown) [Compound 3, Reduced Phyllochlorin 2-deoxyglucosamine-propylamide] | 0.043 | 13.330 |  |
| CCC1=C(C)c2cc3[nH]c(cc4nc(c(C)c5cc(C)c(cc1n2)[nH]5)[C@@H](CCC(=O)N(C)CCCS[C@@H]1O[C@H](CO)[C@@H](O)[C@H](O)[C@H]1O)[C@@H]4C)c(C)c3CC [Compound 4, Reduced Phyllochlorin β-D-1-thioglucose-N-methylpropylamide] | 0.068 | 2.780 |  |
| CCC1=C(C)c2cc3[nH]c(cc4nc(c(C)c5cc(C)c(cc1n2)[nH]5)[C@@H](CCC(=O)N(C)CCOCCO[C@@H]1O[C@H](CO)[C@@H](O)[C@H](O)[C@H]1O)[C@@H]4C)c(C)c3CC [Compound 5, Reduced Phyllochlorin β-D-1-glucose-N-methyl-2-ethoxy-N-ethanamine] | 0.102 | 18.440 |  |
| CCC1=C(C)c2cc3[nH]c(cc4nc(c(C)c5cc(C)c(cc1n2)[nH]5)[C@@H](CCC(=O)N(C)CCCO[C@@H]1O[C@H](CO)[C@@H](O)[C@H](O)[C@H]1O)[C@@H]4C)c(C)c3CC [Compound 9, Reduced Phyllochlorin β-D-glucosyl-N-methylpropylamide] | 0.098 | 12.780 |  |
| CCC1=C(C)c2cc3[nH]c(cc4nc(c(C)c5cc(C)c(cc1n2)[nH]5)[C@@H](CCC(=O)N(C)C[C@H](O)[C@@H](O)[C@H](O)[C@H](O)CO)[C@@H]4C)c(C)c3CC [Compound 10, Reduced Phyllochlorin N-meglumine-propylamide] |  | 4.905 |  |
| CCC1=C(C)c2cc3[nH]c(cc4nc(c(C)c5cc(C)c(cc1n2)[nH]5)[C@@H](CCC(=O)N(C)CCCOCCC[P+](c1ccccc1)(c1ccccc1)c1ccccc1)[C@@H]4C)c(C)c3CC [Compound 11] | 0.003 | 4.347 | IC90 [1, 6]: ≤ 0.01 µM; orders of magnitude greater phototoxicity compared to Talaporfin sodium ([1]; SKOV3 cells, IC90 compared): 4 orders of magnitude |
| CCC1=C(C)c2cc3[nH]c(cc4nc(c(C)c5cc(C)c(cc1n2)[nH]5)[C@@H](CCC(=O)N(C)CCOCCOCCO)[C@@H]4C)c(C)c3CC [Compound 12, Reduced Phyllochlorin N-(2-(2-(2-hydroxyethoxy)ethoxy)ethyl)-N-methyl-3-amide] | 0.078 | 5.975 |  |
| CCC1=C(C)c2cc3[nH]c(cc4nc(c(C)c5cc(C)c(cc1n2)[nH]5)[C@@H](CCC(=O)N(C)CCOCCOCC[n+]1ccccc1)[C@@H]4C)c(C)c3CC [Compound 13, Reduced Phyllochlorin N-(2-(2-(2-pyridiniumethoxy)ethoxy)ethyl)-N-methyl-3-amide chloride] | 0.006 | 1.260 | IC90 [1, 6]: ≤ 0.01 µM |
| CCC1=C(C)c2cc3[nH]c(cc4nc(c(C)c5cc(C)c(cc1n2)[nH]5)[C@@H](CCC(=O)N(C)CCOCCOCCOCCOCCOCCOC)[C@@H]4C)c(C)c3CC [Compound 14, Reduced Phyllochlorin N-methyl-N-3,6,9,12,15,18-hexaoxanonadecyl propylamide] | 0.161 | 3.940 |  |
| CCC1=C(C)c2cc3[nH]c(cc4nc(c(C)c5cc(C)c(cc1n2)[nH]5)[C@@H](CCC(=O)N[C@@H]1C(O)O[C@H](CO)[C@@H](O)[C@@H]1O)[C@@H]4C)c(C)c3CC (stereo partly drawn) [Compound 15, Reduced Phyllochlorin 2-deoxy-D-mannosamine-propylamide] | 0.07 | 5.400 |  |
| CCC1=C(C)c2cc3[nH]c(cc4nc(c(C)c5cc(C)c(cc1n2)[nH]5)[C@@H](CCC(=O)N(C)CCOCCOCC[P+](c1ccccc1)(c1ccccc1)c1ccccc1)[C@@H]4C)c(C)c3CC [Compound 16, Reduced Phyllochlorin N-(2-(2-(2-triphenylphosphoniumethoxy)ethoxy)ethyl)-N-methyl-3-amide chloride] | 0.011 | 3.205 |  |
| CCC1=C(C)c2cc3[nH]c(cc4nc(c(C)c5cc(C)c(cc1n2)[nH]5)[C@@H](CCC(=O)N(C)CCC[S+]([O-])[C@@H]1O[C@H](CO)[C@@H](O)[C@H](O)[C@H]1O)[C@@H]4C)c(C)c3CC (stereo partly drawn) [Compound 17, Reduced Phyllochlorin β-D-1-thioglucose-N-methylpropylamide sulfoxide] | 0.174 | 4.752 |  |
| CCC1=C(C)c2cc3[nH]c(cc4nc(c(C)c5cc(C)c(cc1n2)[nH]5)[C@@H](CCCN)[C@@H]4C)c(C)c3CC [Compound 18, Reduced Phyllochlorin 3-aminopropyl] | 0.01 | 3.946 | IC90 [1, 6]: ≤ 0.01 µM |
| CCC1=C(C)c2cc3[nH]c(cc4nc(c(C)c5cc(C)c(cc1n2)[nH]5)[C@@H](CCC(=O)N(C)CCO)[C@@H]4C)c(C)c3CC [Compound 19, Reduced Phyllochlorin N-2-hydroxyethyl-N-methyl propylamide] | 0.061 | 15.940 |  |
| CCC1=C(C)c2cc3[nH]c(cc4nc(c(C)c5cc(C)c(cc1n2)[nH]5)[C@@H](CCCO)[C@@H]4C)c(C)c3CC [Compound 20, Reduced Phyllochlorin 3-hydroxypropyl] | 0.063 | 5.825 |  |
| CCC1=C(C)c2cc3[nH]c(cc4nc(c(C)c5cc(C)c(cc1n2)[nH]5)[C@@H](CCC(=O)N(C)CCCCCCCCCC[P+](c1ccccc1)(c1ccccc1)c1ccccc1)[C@@H]4C)c(C)c3CC [Compound 21, Reduced Phyllochlorin ((methylamino)-10-decyl)triphenylphosphonium Chloride Propylamide] | 0.022 | 1.465 |  |
| CCC1=C(C)c2cc3[nH]c(cc4nc(c(C)c5cc(C)c(cc1n2)[nH]5)[C@@H](CCC(=O)N(C)CCCO)[C@@H]4C)c(C)c3CC [Compound 22, Reduced Phyllochlorin N-3-hydroxypropyl-N-methyl Propylamide] | 0.042 | 4.348 |  |
| CCC1=C(C)c2cc3[nH]c(cc4nc(c(C)c5cc(C)c(cc1n2)[nH]5)[C@@H](CCC(=O)N(C)CCCCCO)[C@@H]4C)c(C)c3CC [Compound 23, Reduced Phyllochlorin N-5-hydroxypentyl-N-methyl Propylamide] | 0.064 | 4.540 |  |
| CCC1=C(C)c2cc3[nH]c(cc4nc(c(C)c5cc(C)c(cc1n2)[nH]5)[C@@H](CCC(=O)N[C@H]1C(O)O[C@H](CO)[C@H](O)[C@@H]1O)[C@@H]4C)c(C)c3CC (stereo partly drawn) [Compound 24, Reduced Phyllochlorin 2-deoxy-D-galactosamine-propylamide] | 0.049 | 7.011 |  |
| CCC1=C(C)c2cc3[nH]c(cc4nc(c(C)c5cc(C)c(cc1n2)[nH]5)[C@@H](CCC(=O)N[C@@H](CCCCN)C(=O)N[C@@H](CCCCN)C(=O)N[C@@H](CCCCN)C(=O)N[C@@H](CCCCN)C(=O)N[C@@H](CCCCN)C(=O)N(C)C)[C@@H]4C)c(C)c3CC [Compound 26, Reduced Phyllochlorin lysyl-lysyl-lysyl-lysyl-lysyl Dimethylamide Propylamide Pentahydrochloride] (X1-KKKKK-NMe2) | 0.494 |  | Dark toxicity μM (IC10) [2, 3]: 14.670 µM |
| CCC1=C(C)c2cc3[nH]c(cc4nc(c(C)c5cc(C)c(cc1n2)[nH]5)[C@@H](CCC[P+](c1ccccc1)(c1ccccc1)c1ccccc1)[C@@H]4C)c(C)c3CC [Compound 27, Reduced Phyllochlorin 3-triphenylphosphonium Propyl Iodide] |  | 1.326 | IC90 [1, 6]: ≤ 0.01 µM; IC90 [1, 7]: 0.0055 µM |
| CCC1=C(C)c2cc3[nH]c(cc4nc(c(C)c5cc(C)c(cc1n2)[nH]5)[C@@H](CCC(=O)N[C@@H](CCCCN)C(=O)N(C)C)[C@@H]4C)c(C)c3CC [Compound 31, Reduced Phyllochlorin N-Lysyl Dimethylamide Propylamide Hydrochloride] |  | 8.850 | IC90 [1, 7]: 0.011 µM |
| C=Cc1c(C)c2cc3nc(c(CC(=O)N[C@@H](CC(=O)O)C(=O)O)c4[nH]c(cc5nc(cc1[nH]2)C(C)=C5CC)c(C)c4C(=O)O)[C@@H](CCC(=O)O)[C@@H]3C [Talaporfin sodium, reference compound] |  | 11.10 |  |

Reference: patent US20250127898A1, “PHOTODYNAMIC THERAPY AND DIAGNOSIS” (RMW CHO Group Limited, priority 2021, published 2025)
